Laboratory results: ChEMBL document CHEMBL1201862, “PubChem BioAssay data set” (2004)
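96-well plates; 48 h exposure; 5 concentrations. Endpoints by linear interpolation between flanking doses. Not reached: highest tested concentration assigned. Here, GI50 denotes the concentration required for 50% inhibition of growth.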 Activity calls are given as the source filed them. Cut-off read from the data, not from the text of the source: active = GI50 up to about 1.1 µM and inactive = higher.

Experiments:
Test in all cases: NCI tumour cell line growth inhibition, 48 h
A498 = test system: A498
ACHN = test system: ACHN
EKVX = test system: EKVX
HOP-92 = test system: HOP-92
IGROV-1 = test system: IGROV-1
K562 = test system: K562
LOX IMVI = test system: LOX IMVI
MCF7 = test system: MCF7
MDA-MB-435 = test system: MDA-MB-435
MDA-N = test system: MDA-N
NCI-H460 = test system: NCI-H460
OVCAR-4 = test system: OVCAR-4
RPMI-8226 = test system: RPMI-8226
RXF 393 = test system: RXF 393
SF-268 = test system: SF-268
SF-539 = test system: SF-539
SR = test system: SR
SW-620 = test system: SW-620
UACC-62 = test system: UACC-62
UO-31 = test system: UO-31

Structure (SMILES) | GI50 (A498) | GI50 (ACHN) | GI50 (EKVX) | GI50 (HOP-92) | GI50 (IGROV-1) | GI50 (K562) | GI50 (LOX IMVI) | GI50 (MCF7) | GI50 (MDA-MB-435) | GI50 (MDA-N) | GI50 (NCI-H460) | GI50 (OVCAR-4) | GI50 (RPMI-8226) | GI50 (RXF 393) | GI50 (SF-268) | GI50 (SF-539) | GI50 (SR) | GI50 (SW-620) | GI50 (UACC-62) | GI50 (UO-31)
COC(Cc1ccccc1)NC(C)=O (stereo not given) | > 100 µM (inactive) | > 100 µM (inactive) | > 100 µM (inactive) | > 100 µM (inactive) | > 100 µM (inactive) | > 100 µM (inactive) | > 100 µM (inactive) | > 100 µM (inactive) | > 100 µM (inactive) | > 100 µM (inactive) | > 100 µM (inactive) | > 100 µM (inactive) | > 100 µM (inactive) | > 100 µM (inactive) | > 100 µM (inactive) | > 100 µM (inactive) | > 100 µM (inactive) | > 100 µM (inactive) | > 100 µM (inactive) | > 100 µM (inactive)
Cn1ccnc1Sc1ccc(/C=N/NC(=O)c2ccccc2[N+](=O)[O-])cc1[N+](=O)[O-] | 58.9 µM (inactive) | 70.1 µM (inactive) | 40.9 µM (inactive) | 18 µM (inactive) | 37.4 µM (inactive) | 40.5 µM (inactive) | 37.3 µM (inactive) | 59.8 µM (inactive) | 66.7 µM (inactive) | 89.1 µM (inactive) | 46.5 µM (inactive) | 57.8 µM (inactive) | 38.7 µM (inactive) | 52.5 µM (inactive) | > 100 µM (inactive) | > 100 µM (inactive) | 36.1 µM (inactive) | 98.2 µM (inactive) | 64.3 µM (inactive) | 89.1 µM (inactive)
O=C1Cc2cn[nH]c2-c2ccccc2N1 | > 94.4 µM (inactive) | 28.8 µM (inactive) | 34.7 µM (inactive) | 8.45 µM (inactive) | 39.2 µM (inactive) | 21.9 µM (inactive) | 16.3 µM (inactive) | 39 µM (inactive) | 22.3 µM (inactive) | 35.2 µM (inactive) | 24.2 µM (inactive) | 30.3 µM (inactive) | 17.1 µM (inactive) | 28.2 µM (inactive) | 41.1 µM (inactive) | 38.8 µM (inactive) | 21.7 µM (inactive) | 17.2 µM (inactive) | 22.9 µM (inactive) | 32.7 µM (inactive)
CN(C)CCOc1ccc2[nH]c(C(=O)N3CC(CCl)c4c3cc(NC(=O)OCc3ccc([N+](=O)[O-])cc3)c3ccccc43)cc2c1 (stereo not given) | 1.85 µM (inactive) | 0.689 µM (active) | 1.73 µM (inactive) | 1.5 µM (inactive) | 1.45 µM (inactive) | 0.237 µM (active) | 1.45 µM (inactive) | 0.211 µM (active) | 1.6 µM (inactive) | 1.6 µM (inactive) | 4.05 µM (inactive) | 1.99 µM (inactive) | 0.493 µM (active) | 1.51 µM (inactive) | 1.37 µM (inactive) | 1.69 µM (inactive) | 0.533 µM (active) | 1.19 µM (inactive) | 1.83 µM (inactive) | 1.28 µM (inactive)
NC(=O)C(=CNC(=S)Nc1ccc(Cl)c(Cl)c1)C(N)=O | > 61.4 µM (inactive) | > 94 µM (inactive) | 65.9 µM (inactive) | 33.1 µM (inactive) | 92.7 µM (inactive) | > 70 µM (inactive) | > 92.3 µM (inactive) | > 52 µM (inactive) | 44.8 µM (inactive) | 47.4 µM (inactive) | > 100 µM (inactive) | 46 µM (inactive) | 36.1 µM (inactive) | > 49.9 µM (inactive) | > 90.8 µM (inactive) | 26.7 µM (inactive) | > 71.3 µM (inactive) | > 100 µM (inactive) | 49.8 µM (inactive) | 16.5 µM (inactive)
Cc1cccc2c1C(=O)[C@](C)([C@]1(C)Nc3cccc(C)c3C1=O)N2 | 60.5 µM (inactive) | 43.9 µM (inactive) | 23.7 µM (inactive) | 27.3 µM (inactive) | 33.5 µM (inactive) | 30.8 µM (inactive) | 29.3 µM (inactive) | 45.4 µM (inactive) | 15.7 µM (inactive) | 25 µM (inactive) | 31 µM (inactive) | 47.6 µM (inactive) | 10.8 µM (inactive) | 54.1 µM (inactive) | 16.1 µM (inactive) | 29 µM (inactive) | 17.7 µM (inactive) | 30.7 µM (inactive) | 28.1 µM (inactive) | 18.1 µM (inactive)
CC(=O)Nc1ccc2c3c(cc(O)c2c1)N(C(=O)CCCCC(=O)Nc1ccc2c4c(cc(O)c2c1)N(C(=O)OC(C)(C)C)CC4CCl)CC3CCl (stereo not given) | 1.94 µM (inactive) | 3.2 µM (inactive) | 12.8 µM (inactive) | 2.7 µM (inactive) | 1.92 µM (inactive) | 2.62 µM (inactive) | 2.19 µM (inactive) | 0.373 µM (active) | 1.78 µM (inactive) | 1.77 µM (inactive) | 1.83 µM (inactive) | 2.52 µM (inactive) | 3.13 µM (inactive) | 1.53 µM (inactive) | 0.804 µM (active) | 2.25 µM (inactive) | 0.137 µM (active) | 2.82 µM (inactive) | 1.54 µM (inactive) | 24.3 µM (inactive)
COc1ccc2c(-c3ccc(OCCN(C)C)cc3)c(Oc3ccc(Cl)cc3)c(=O)oc2c1 | 14 µM (inactive) | 7.23 µM (inactive) | 11.5 µM (inactive) | 5.5 µM (inactive) | 3.37 µM (inactive) | 2.54 µM (inactive) | 2.19 µM (inactive) | 2.52 µM (inactive) | 2.85 µM (inactive) | 2.06 µM (inactive) | 5.58 µM (inactive) | 20 µM (inactive) | 4.05 µM (inactive) | 4.18 µM (inactive) | 7.76 µM (inactive) | 3.74 µM (inactive) | 2 µM (inactive) | 5.41 µM (inactive) | 2.75 µM (inactive) | 3.28 µM (inactive)
COC(=O)C1=C(C(=O)OC)C(C(=O)OC)C(C(=O)OC)C(C(=O)OC)(C(=O)OC)C(C(=O)OC)=C1C(=O)OC (stereo not given) | 15.5 µM (inactive) | 14.7 µM (inactive) | 18.3 µM (inactive) | 6.89 µM (inactive) | 18.1 µM (inactive) | 3.4 µM (inactive) | 13.5 µM (inactive) | 15.4 µM (inactive) | 18.7 µM (inactive) | 17.1 µM (inactive) | 19 µM (inactive) | 22.8 µM (inactive) | 2.24 µM (inactive) | 7.43 µM (inactive) | 19 µM (inactive) | 17.7 µM (inactive) | 0.285 µM (active) | 5.08 µM (inactive) | 15.5 µM (inactive) | 16.3 µM (inactive)
COc1cc(O)c2c(c1)C(O)C(O)CC1OC1C(=O)/C=C/CC(C)OC2=O (stereo not given) | 5.42 µM (inactive) | 3.2 µM (inactive) | 8.53 µM (inactive) | 0.354 µM (active) | 2.48 µM (inactive) | 1.7 µM (inactive) | 3.88 µM (inactive) | 4.07 µM (inactive) | 0.838 µM (active) | 0.454 µM (active) | 7.03 µM (inactive) | 3.27 µM (inactive) | 3.1 µM (inactive) | 0.982 µM (active) | 10.4 µM (inactive) | 3.99 µM (inactive) | 2.7 µM (inactive) | 0.412 µM (active) | 0.0904 µM (active) | 1.17 µM (inactive)
C[C@H](CCC(=O)O)[C@H]1CC[C@H]2[C@@H]3[C@@H](O)C[C@@H]4C[C@H](O)CC[C@]4(C)[C@H]3CC[C@]12C | > 100 µM (inactive) | > 100 µM (inactive) | > 100 µM (inactive) | > 100 µM (inactive) | > 100 µM (inactive) | 69.8 µM (inactive) | > 100 µM (inactive) | 86.7 µM (inactive) | > 100 µM (inactive) | > 100 µM (inactive) | 58.2 µM (inactive) | > 100 µM (inactive) | 38.1 µM (inactive) | > 100 µM (inactive) | > 100 µM (inactive) | > 100 µM (inactive) | 47.8 µM (inactive) | > 100 µM (inactive) | 76.2 µM (inactive) | 57.5 µM (inactive)
